These results are taken from patent publication EP4692094A1 (Beijing Konruns Pharmaceutical Co., Ltd., priority 2023, dated 2024).

For orientation: pIC50 means the negative decadic logarithm of the IC50, by convention in mol/L. A low value points to a high IC50.

One data set addresses T1, KAT7 (Homo sapiens, UniProt O95251).
T1 construct: purchased ICE S02210F-H21HF
As to the kind of experiment: Enzymatic activity assay for KAT7 acetyltransferase (TR-FRET, histone substrate H4). In kind it is biochemical. As to conditions: KAT7 15 nM, H4 300 nM, AcCOA 2 µM. The procedure:
The acetylation effects of KAT6B on histone substrate H3, as well as KAT5, KAT7, and KAT8 on histone substrate H4, were determined using the TR-FRET (time-resolved fluorescence resonance energy transfer) method. The determination was performed according to experimental procedures similar to those in "Pharmacological Experiment I": 1.2 Preparation of compounds: The compounds prepared in the examples were each dissolved in dimethylsulfoxide to give solutions at a concentration of 10 mmol/L. • 1) The compounds in the examples were each diluted from 10 mmol/L stock solution to 0.2 mmol/L, i.e., 1 µL of the compound was added to 49 µL of DMSO, and 3-fold dilution was performed to give 10 concentrations. • 2) 50 nL of the test compounds were transferred to 384 reaction plates using Echo, two replicates for each compound, and the plates were centrifuged at a rotation speed of 1000 rpm for 1 min, the final concentration of dimethylsulfoxide (DMSO) being 0.5%.
For KAT7: • 3) 2.5 µL of the KAT7 enzyme solution at a final concentration of 15 nM was added to the 384 reaction plates in step 2), and the plates were centrifuged at 1000 rpm for 1 min and incubated at 25 °C for 10 min. • 4) 2.5 µL of H4 at a final concentration of 300 nM and an AcCOA (acetyl-CoA) reaction solution at a final concentration of 2 µM were added to the 384 reaction plates in step 3), and the plates were centrifuged at a rotation speed of 1000 rpm for 1 min and incubated at 25 °C for 90 min.
For KAT8: • 3) 2.5 µL of the KAT8 enzyme solution at a final concentration of 10 nM was added to the 384 reaction plates in step 2), and the plates were centrifuged at 1000 rpm for 1 min and incubated at 25 °C for 10 min. • 4) 2.5 µL of […] at a final concentration of 300 nM and an AcCOA (acetyl-CoA) reaction solution at a final concentration of 2 µM were added to the 384 reaction plates in step 3), and the plates were centrifuged at a rotation speed of 1000 rpm for 1 min and incubated at 25 °C for 90 min. • 5) 5 µL of Eu-Ab& Ulight-SA detection solution was separately added to the 384 reaction plates in step 4) of the 4 groups described above, and the plates were centrifuged at 1000 rpm for 1 min and incubated at 25 °C for 60 min. • 6) The HTRF […] signals were read using a BMG high-throughput drug-screening multi-mode microplate reader.
The acetylation levels of the histones in the groups were analyzed by the GraphPad Prism 8 software. The reading of the negative control (0.5% DMSO wells) was set as 0% inhibition rate, and the reading of the positive control (wells with the highest concentration of the control compound) was set as 100% inhibition rate. The inhibition rates were calculated, and then IC50 values (half maximal inhibitory concentration) of test compounds were obtained by using a software nonlinear fitting formula; [formula]
Datapositive control: mean of positive control well values; Datanegative control: mean of negative control well values. Table 5. Enzymatic inhibitory activity of example compounds
For orientation: TR-FRET usually uses a lanthanide donor and a delayed reading to cut background.

Data set [1] is described as follows: Assay for plasma protein binding rate (equilibrium dialysis), human plasma. In kind it is in vitro ADME. As to conditions: dialysis 6 h at 37 °C, read-out: Human (Fu%). The procedure:
1.1 Preparation of compounds: The compounds prepared in the examples were each dissolved in dimethylsulfoxide to give solutions at a concentration of 10 mmol/L. • 1) The example compounds were each diluted from 10 mmol/L stock solution to 0.2 mmol/L, i.e., 1 µL of the compound was added to 49 µL of DMSO; • 2) 3 µL of 0.2 mmol/L test compounds were added to 597 µL of blood plasma, and the mixtures were vortexed at 1000 rpm for 2 min; • 3) 50 µL of the plasma containing the drug in 2) was taken, 50 µL of PBS was added, and 300 µL of methanol internal standard* was added to serve as a sample T0; • 4) 120 µL of the plasma containing the drug in 2) was taken and added to one side of an HTD device membrane, and 120 µL of PBS was added to the other side of the membrane; a breathable film was covered, and the plasma and the residual sample in 2) were balanced at 37 °C (100 rpm and 5% CO2) for 6 h; • 5) 50 µL of the dialyzed plasma side sample was taken, 50 µL of PBS was added, and 300 µL of methanol internal standard* was added to serve as a sample P; • 6) 50 µL of the dialyzed PBS side sample was taken, 50 µL of blank plasma was added, and 300 µL of methanol internal standard* was added to serve as a sample B; • 7) 50 µL of the plasma containing the drug in 2) was taken, 50 µL of PBS was added, and 300 µL of methanol internal standard* was added to serve as a sample T6; • 8) All samples were vortexed, mixed homogeneously, and then centrifuged at 3220 g for 40 min at 4 °C; • 9) 100 µL of the supernatant and 100 µL of purified water were mixed homogenously for liquid chromatography-mass spectrometry.
An internal standard method was used, and the plasma protein binding rate, recovery rate, and residual percentage were calculated by using Excel according to the ratio of the peak area of the sample to the peak area of the internal standard. Free rate(%) = (RatioB)/(RatioP) × 100% [formula] Binding rate(%) = 100%−Free rate% [formula] Recovery rate(%) = (RatioB + RatioP)/(RatioT0) × 100% [formula] Remaining percentage(%) = (RatioT6)/(RatioT0) × 100% [formula]
RatioB: a ratio of the peak area of the test substance on the PBS side to the peak area of the internal standard; RatioP: a ratio of the peak area of the test substance on the plasma side to the peak area of the internal standard; RatioT6: a ratio of the peak area of the sample after incubation with the test substance for 6 h to the peak area of the internal standard; RatioT0: a ratio of the peak area of the sample after incubation with the test substance for 0 h to the peak area of the internal standard. Table 8. Plasma protein binding rate (Fu%) data for various species of example compounds

Structures are written as SMILES. pIC50: −log10 of the molar value.

T1 sequence (O95251 whole entry): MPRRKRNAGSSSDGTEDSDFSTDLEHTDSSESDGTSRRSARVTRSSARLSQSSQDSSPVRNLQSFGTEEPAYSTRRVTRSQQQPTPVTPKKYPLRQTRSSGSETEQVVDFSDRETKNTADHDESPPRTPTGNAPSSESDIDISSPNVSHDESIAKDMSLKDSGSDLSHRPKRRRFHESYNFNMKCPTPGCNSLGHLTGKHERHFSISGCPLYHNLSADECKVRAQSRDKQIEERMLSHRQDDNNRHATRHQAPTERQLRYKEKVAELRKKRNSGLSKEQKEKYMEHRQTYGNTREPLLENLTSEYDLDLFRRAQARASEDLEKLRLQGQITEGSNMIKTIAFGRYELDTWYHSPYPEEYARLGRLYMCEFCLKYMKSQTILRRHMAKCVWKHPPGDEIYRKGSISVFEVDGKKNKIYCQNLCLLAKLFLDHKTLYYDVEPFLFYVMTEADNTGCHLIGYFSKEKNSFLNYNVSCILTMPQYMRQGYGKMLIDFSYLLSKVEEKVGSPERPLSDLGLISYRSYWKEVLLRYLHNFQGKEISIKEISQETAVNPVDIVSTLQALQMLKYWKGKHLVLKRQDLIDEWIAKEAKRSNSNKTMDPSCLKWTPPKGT

At KAT7, `COc1cc2c(cc1S(=O)(=O)Nc1noc3cc(Cn4cccn4)nc(OC)c13)CCCO2` [Example 76, N-(6-((1H-Pyrazol-1-yl)methyl)-4-methoxyisoxazolo[4,5-c]pyridin-3-yl)-7-methoxy-3,4-dihydro-1H-benzopyran-6-sulfonamide] gave a pIC50 of 7.06. Also, in data set [1], the fraction unbound at 6 h, 1 µM was determined as 0.0118.

Consider `COc1cc2c(cc1S(=O)(=O)Nc1noc3cc(Cn4cccn4)nc(OC)c13)OCC2` [Example 59, N-(6-((1H-Pyrazol-1-yl)methyl)-4-methoxyisoxazolo[4,5-c]pyridin-3-yl)-5-methoxy-2,3-dihydrobenzofuran-6-sulfonamide], for which the pIC50 against KAT7 was 7.56. In addition, in data set [1], the fraction unbound at 6 h, 1 µM came out at 0.0248.

In turn, `COc1cc2c(cc1S(=O)(=O)Nc1noc3cc(Cn4cccn4)nc(OC)c13)CCCC2` [Example 2, N-(6-((1H-Pyrazol-1-yl)methyl)-4-methoxyisoxazolo[4,5-c]pyridin-3-yl)-3-methoxy-5,6,7,8-tetrahydronaphthalene-2-sulfonamide] gave a pIC50 at KAT7 of 7.27. In addition, the fraction unbound at 6 h, 1 µM in data set [1] turned out to be 0.0099.

With `COc1ccc2ccoc2c1S(=O)(=O)Nc1noc2cc(Cn3cccn3)nc(OC)c12` [Example 10, N-(6-((1H-Pyrazol-1-yl)methyl)-4-methoxyisoxazolo[4,5-c]pyridin-3-yl)-6-methoxybenzofuran-7-sulfonamide], the pIC50 at KAT7 is 8.13. Besides, the fraction unbound at 6 h, 1 µM in data set [1] is 0.0073.

Consider `COc1ccc2c(c1S(=O)(=O)Nc1noc3cc(Cn4cccn4)nc(OC)c13)OCC2` [Example 9, N-(6-((1H-Pyrazol-1-yl)methyl)-4-methoxyisoxazolo[4,5-c]pyridin-3-yl)-6-methoxy-2,3-dihydrobenzofuran-7-sulfonamide], for which the pIC50 on KAT7 is 7.32. Further, in data set [1], the fraction unbound at 6 h, 1 µM worked out at 0.0069.
